In publication PMC5218480 (PLoS ONE, 2017):

Test system: MV-4-11 cells
Experiment: Gene expression microarray analysis (Affymetrix PrimeView) and GSEA
Type: cell-based, human
Design: RFU PODN (11730768_x_at) / Fold change /veh PODN (11730768_x_at) / RFU LINC00158 (11744669_a_at) / Fold change /veh LINC00158 (11744669_a_at) / RFU DUSP10 (11751237_a_at) / Fold change /veh DUSP10 (11751237_a_at) / RFU ID3 (11757404_x_at) / Fold change /veh ID3 (11757404_x_at) / RFU PLEKHG5 (11737974_s_at) / Fold change /veh PLEKHG5 (11737974_s_at) / RFU LRRC4B (11730491_at) / Fold change /veh LRRC4B (11730491_at) / RFU GIMAP4 (11747438_a_at) / Fold change /veh GIMAP4 (11747438_a_at) / RFU KRT8 (11758183_x_at) / Fold change /veh KRT8 (11758183_x_at) / RFU CNN1 (11734310_a_at) / Fold change /veh CNN1 (11734310_a_at) / RFU VPS37D (11726825_at) / Fold change /veh VPS37D (11726825_at) / RFU C10orf10 (11716522_x_at) / Fold change /veh C10orf10 (11716522_x_at) / RFU KIR2DL2 /// KIR2DL4 /// KIR2DL5A /// KIR2DL5B /// KIR2DS1 /// KIR2DS2 /// KIR2DS3 /// KIR2DS4 /// KIR3DL3 /// KIR3DL3 /// KIR3DS1 (11738374_at) / Fold change /veh KIR2DL2 /// KIR2DL4 /// KIR2DL5A /// KIR2DL5B /// KIR2DS1 /// KIR2DS2 /// KIR2DS3 /// KIR2DS4 /// KIR3DL3 /// KIR3DL3 /// KIR3DS1 (11738374_at) / RFU C1QL1 (11718748_at) / Fold change /veh C1QL1 (11718748_at) / RFU TMPRSS4 (11747572_a_at) / Fold change /veh TMPRSS4 (11747572_a_at) / RFU HAMP (11756126_x_at) / Fold change /veh HAMP (11756126_x_at) / RFU RNFT2 (11725882_a_at) / Fold change /veh RNFT2 (11725882_a_at) / RFU NR4A2 (11747474_a_at) / Fold change /veh NR4A2 (11747474_a_at) / RFU ABCC12 (11746883_a_at) / Fold change /veh ABCC12 (11746883_a_at) / RFU TMEM136 (11760407_x_at) / Fold change /veh TMEM136 (11760407_x_at) / RFU CLDN22 /// WWC2 (11732394_at) / Fold change /veh CLDN22 /// WWC2 (11732394_at) / RFU HLA-DPB1 (11760878_x_at) / Fold change /veh HLA-DPB1 (11760878_x_at) / RFU SPINT1 (11716480_a_at) / Fold change /veh SPINT1 (11716480_a_at) / RFU GAP43 (11754022_s_at) / Fold change /veh GAP43 (11754022_s_at) / RFU A4GNT (11735810_at) / Fold change /veh A4GNT (11735810_at) / RFU PRB3 (11715151_x_at) / Fold change /veh PRB3 (11715151_x_at) / RFU TUBB4B (11761932_at) / Fold change /veh TUBB4B (11761932_at) / RFU CAPN14 (11732068_a_at) / Fold change /veh CAPN14 (11732068_a_at) / RFU TMCC2 (11721928_a_at) / Fold change /veh TMCC2 (11721928_a_at) / RFU IRGQ (11745062_a_at) / Fold change /veh IRGQ (11745062_a_at) / RFU FAM174B (11720279_a_at) / Fold change /veh FAM174B (11720279_a_at) / RFU TMPRSS4 (11748680_a_at) / Fold change /veh TMPRSS4 (11748680_a_at) / RFU FAM212B (11763350_a_at) / Fold change /veh FAM212B (11763350_a_at) / RFU PLEKHG5 (11743358_a_at) / Fold change /veh PLEKHG5 (11743358_a_at) / RFU ZSCAN30 (11745921_a_at) / Fold change /veh ZSCAN30 (11745921_a_at) / RFU CMKLR1 (11741424_a_at) / Fold change /veh CMKLR1 (11741424_a_at) / RFU LOC101060620 /// MAPK8IP1 (11723275_at) / Fold change /veh LOC101060620 /// MAPK8IP1 (11723275_at) / RFU SPTSSB (11747773_x_at) / Fold change /veh SPTSSB (11747773_x_at) / RFU PRSS12 (11739890_at) / Fold change /veh PRSS12 (11739890_at) / RFU BIN1 (11741810_x_at) / Fold change /veh BIN1 (11741810_x_at) / RFU WNT11 (11732464_a_at) / Fold change /veh WNT11 (11732464_a_at) / RFU C10orf10 (11716521_a_at) / Fold change /veh C10orf10 (11716521_a_at) / RFU C5orf56 (11738089_at) / Fold change /veh C5orf56 (11738089_at) / RFU CYB561 (11721691_x_at) / Fold change /veh CYB561 (11721691_x_at) / RFU ANKRD19P (11752326_a_at) / Fold change /veh ANKRD19P (11752326_a_at) / RFU OR2T12 /// OR2T33 /// OR2T8 (11738714_s_at) / Fold change /veh OR2T12 /// OR2T33 /// OR2T8 (11738714_s_at) / RFU VCAN (11748164_a_at) / Fold change /veh VCAN (11748164_a_at) / RFU JSRP1 (11732532_at) / Fold change /veh JSRP1 (11732532_at) / RFU KRTAP10-11 (11738290_x_at) / Fold change /veh KRTAP10-11 (11738290_x_at) / RFU MYO3A (11730013_a_at) / Fold change /veh MYO3A (11730013_a_at) / RFU EBF3 (11725865_a_at) / Fold change /veh EBF3 (11725865_a_at) / RFU CAMK2N1 (11719241_x_at) / Fold change /veh CAMK2N1 (11719241_x_at) / RFU C5orf56 (11738088_a_at) / Fold change /veh C5orf56 (11738088_a_at) / RFU OLFML3 (11715873_a_at) / Fold change /veh OLFML3 (11715873_a_at) / RFU LOC100653217 /// NTM (11731650_a_at) / Fold change /veh LOC100653217 /// NTM (11731650_a_at) / RFU MAPK11 (11762145_a_at) / Fold change /veh MAPK11 (11762145_a_at) / RFU FIZ1 (11724087_x_at) / Fold change /veh FIZ1 (11724087_x_at) / RFU OASL (11726364_x_at) / Fold change /veh OASL (11726364_x_at) / RFU SOX15 (11748057_x_at) / Fold change /veh SOX15 (11748057_x_at) / RFU CD79A (11719716_a_at) / Fold change /veh CD79A (11719716_a_at) / RFU HIST1H1D (11736915_at) / Fold change /veh HIST1H1D (11736915_at) / RFU CASKIN2 (11723855_a_at) / Fold change /veh CASKIN2 (11723855_a_at) / RFU LOC730098 (11760151_x_at) / Fold change /veh LOC730098 (11760151_x_at) / RFU OR4N2 (11742367_at) / Fold change /veh OR4N2 (11742367_at) / RFU PRRT2 (11749266_a_at) / Fold change /veh PRRT2 (11749266_a_at) / RFU SNX32 (11753110_a_at) / Fold change /veh SNX32 (11753110_a_at) / RFU CDHR5 (11726645_a_at) / Fold change /veh CDHR5 (11726645_a_at) / RFU RCAN1 (11760418_a_at) / Fold change /veh RCAN1 (11760418_a_at) / RFU FAM167A (11723789_a_at) / Fold change /veh FAM167A (11723789_a_at) / RFU FAM26E (11764081_at) / Fold change /veh FAM26E (11764081_at) / RFU ISYNA1 (11749810_s_at) / Fold change /veh ISYNA1 (11749810_s_at) / RFU ACY1 (11761880_at) / Fold change /veh ACY1 (11761880_at) / RFU 11764098_at / Fold change /veh 11764098_at / RFU SAMD14 (11745864_x_at) / Fold change /veh SAMD14 (11745864_x_at) / RFU NPB (11741838_a_at) / Fold change /veh NPB (11741838_a_at) / RFU TMPRSS6 (11731388_a_at) / Fold change /veh TMPRSS6 (11731388_a_at) / RFU KRTAP10-2 (11738614_at) / Fold change /veh KRTAP10-2 (11738614_at) / RFU ARHGAP8 /// PRR5-ARHGAP8 (11727945_x_at) / Fold change /veh ARHGAP8 /// PRR5-ARHGAP8 (11727945_x_at) / RFU KRTAP5-7 /// NADSYN1 (11734609_at) / Fold change /veh KRTAP5-7 /// NADSYN1 (11734609_at) / RFU RASL12 (11751679_a_at) / Fold change /veh RASL12 (11751679_a_at) / RFU CDKN2B (11736163_a_at) / Fold change /veh CDKN2B (11736163_a_at) / RFU PRF1 (11729649_at) / Fold change /veh PRF1 (11729649_at) / RFU, ZNF638 /// ZNF638-IT1 / Fold change vs veh, ZNF638 /// ZNF638-IT1 / RFU, PANK3 / Fold change vs veh, PANK3 / RFU, SH3YL1 / Fold change vs veh, SH3YL1 / RFU, ZEB2 / Fold change vs veh, ZEB2 / RFU, NRIP1 / Fold change vs veh, NRIP1 / RFU, PTTG1IP / Fold change vs veh, PTTG1IP / RFU, CAPN2 / Fold change vs veh, CAPN2 / RFU, MED14 / Fold change vs veh, MED14 / RFU, SNORA58 / Fold change vs veh, SNORA58 / RFU, C1orf63 / Fold change vs veh, C1orf63 / RFU, LRRFIP1 / Fold change vs veh, LRRFIP1 / RFU, NDUFAF7 / Fold change vs veh, NDUFAF7 / RFU, SLC12A2 / Fold change vs veh, SLC12A2 / RFU, IBTK / Fold change vs veh, IBTK / RFU, ESF1 / Fold change vs veh, ESF1 / Fold change vs veh, TMEM50B / RFU, TAOK1 / Fold change vs veh, TAOK1 / RFU, ACBD3 / Fold change vs veh, ACBD3 / RFU, TMA16 / Fold change vs veh, TMA16 / RFU, RWDD3 / Fold change vs veh, RWDD3 / RFU, BCAT1 / Fold change vs veh, BCAT1 / RFU, EDEM3 / Fold change vs veh, EDEM3 / RFU, TMEM33 / Fold change vs veh, TMEM33 / RFU, WDR75 / Fold change vs veh, WDR75 / RFU, AHCTF1 / Fold change vs veh, AHCTF1 / RFU, TFRC / Fold change vs veh, TFRC / RFU, ZDHHC17 / Fold change vs veh, ZDHHC17 / RFU, NOM1 / Fold change vs veh, NOM1 / RFU, ARL8B / Fold change vs veh, ARL8B / RFU, ZBTB11 / Fold change vs veh, ZBTB11 / RFU, TAMM41 / Fold change vs veh, TAMM41 / RFU, KIAA1704 /// LOC100996395 / Fold change vs veh, KIAA1704 /// LOC100996395 / RFU, ING1 / Fold change vs veh, ING1 / RFU, TRMT61B / Fold change vs veh, TRMT61B / RFU, FUBP3 / Fold change vs veh, FUBP3 / RFU, TP53 / Fold change vs veh, TP53 / RFU, TNKS2 / Fold change vs veh, TNKS2 / RFU, ZFP14 / Fold change vs veh, ZFP14 / RFU, ACTR2 / Fold change vs veh, ACTR2 / RFU, PPP3R1 / Fold change vs veh, PPP3R1 / RFU, PIK3R1 / Fold change vs veh, PIK3R1 / RFU, HNRNPA1 / Fold change vs veh, HNRNPA1 / RFU, RNF170 / Fold change vs veh, RNF170 / RFU, ZNF28 / Fold change vs veh, ZNF28 / RFU, RNGTT / Fold change vs veh, RNGTT / RFU, OGT / Fold change vs veh, OGT / RFU, BRD1 / Fold change vs veh, BRD1 / RFU, MARS / Fold change vs veh, MARS / RFU, ZNF655 / Fold change vs veh, ZNF655 / RFU, FAHD1 / Fold change vs veh, FAHD1 / RFU, BDP1 / Fold change vs veh, BDP1 / RFU, LRRCC1 / Fold change vs veh, LRRCC1 / RFU, ARID1A / Fold change vs veh, ARID1A / RFU, ZNF146 / Fold change vs veh, ZNF146 / RFU, ZNF330 / Fold change vs veh, ZNF330 / RFU, GPN3 / Fold change vs veh, GPN3 / RFU, C9orf123 / Fold change vs veh, C9orf123 / RFU, N4BP2L2 / Fold change vs veh, N4BP2L2 / RFU, ARFIP1 / Fold change vs veh, ARFIP1 / RFU, FAM179B / Fold change vs veh, FAM179B / RFU, BCL10 / Fold change vs veh, BCL10 / RFU, UHRF1BP1L / Fold change vs veh, UHRF1BP1L / RFU, BET1 / Fold change vs veh, BET1 / RFU, CNOT2 / Fold change vs veh, CNOT2 / RFU, ZNF268 / Fold change vs veh, ZNF268 / Fold change vs veh, ZNF507 / RFU, DGCR2 / Fold change vs veh, DGCR2 / RFU, WDSUB1 / Fold change vs veh, WDSUB1 / Fold change vs veh, HSP90B1 /// MIR3652 / RFU, ADSS / Fold change vs veh, ADSS / RFU, GK / Fold change vs veh, GK / RFU, ZNF148 / Fold change vs veh, ZNF148 / RFU, TAF9 / Fold change vs veh, TAF9 / RFU, SLC1A5 / Fold change vs veh, SLC1A5 / RFU, SLMO2 / Fold change vs veh, SLMO2 / RFU, ABCC4 / Fold change vs veh, ABCC4 / RFU, LOC101060439 /// RAP1B / Fold change vs veh, LOC101060439 /// RAP1B / RFU, RFX7 / Fold change vs veh, RFX7 / RFU, GTPBP10 / Fold change vs veh, GTPBP10 / RFU, CNEP1R1 / Fold change vs veh, CNEP1R1 / RFU, BIVM-ERCC5 /// ERCC5 / Fold change vs veh, BIVM-ERCC5 /// ERCC5 / RFU, ILF3 / Fold change vs veh, ILF3 / RFU 11762660_at / Fold change /veh 11762660_at / RFU VCAN (11757783_s_at) / Fold change /veh VCAN (11757783_s_at) / RFU DDX43 (11728927_at) / Fold change /veh DDX43 (11728927_at) / RFU KRT8 (11758188_x_at) / Fold change /veh KRT8 (11758188_x_at) / RFU NKD1 (11759106_at) / Fold change /veh NKD1 (11759106_at) / RFU SRD5A1 (11742802_a_at) / Fold change /veh SRD5A1 (11742802_a_at) / RFU TPSAB1 /// TPSB2 (11721975_s_at) / Fold change /veh TPSAB1 /// TPSB2 (11721975_s_at) / RFU GSTM3 (11746129_a_at) / Fold change /veh GSTM3 (11746129_a_at) / RFU IL23R (11737362_x_at) / Fold change /veh IL23R (11737362_x_at) / RFU TMEM51 (11727254_a_at) / Fold change /veh TMEM51 (11727254_a_at) / RFU PIWIL2 (11732686_x_at) / Fold change /veh PIWIL2 (11732686_x_at) / RFU ORM1 (11744905_x_at) / Fold change /veh ORM1 (11744905_x_at) / RFU CCDC152 (11743942_at) / Fold change /veh CCDC152 (11743942_at) / RFU ECM1 (11717891_a_at) / Fold change /veh ECM1 (11717891_a_at) / RFU IL23R (11748794_a_at) / Fold change /veh IL23R (11748794_a_at) / RFU TNFAIP8L3 (11732012_x_at) / Fold change /veh TNFAIP8L3 (11732012_x_at) / RFU MBOAT4 (11741988_at) / Fold change /veh MBOAT4 (11741988_at) / RFU 11764193_at / Fold change /veh 11764193_at / RFU TMEM53 (11763286_at) / Fold change /veh TMEM53 (11763286_at) / RFU MAGEB2 (11727129_at) / Fold change /veh MAGEB2 (11727129_at) / RFU TMEM200A (11744735_a_at) / Fold change /veh TMEM200A (11744735_a_at) / RFU CCDC152 (11751479_a_at) / Fold change /veh CCDC152 (11751479_a_at) / RFU FAM211A (11726209_a_at) / Fold change /veh FAM211A (11726209_a_at) / RFU RGS16 (11746705_a_at) / Fold change /veh RGS16 (11746705_a_at) / RFU VCAN (11755009_s_at) / Fold change /veh VCAN (11755009_s_at) / RFU RHOB (11743442_s_at) / Fold change /veh RHOB (11743442_s_at) / RFU RGS16 (11720943_a_at) / Fold change /veh RGS16 (11720943_a_at) / RFU RGS16 (11720944_at) / Fold change /veh RGS16 (11720944_at) / RFU, VPS4B / Fold change vs veh, VPS4B / RFU, CREB1 / Fold change vs veh, CREB1 / RFU, DNAJC13 / Fold change vs veh, DNAJC13 / RFU, GNAQ / Fold change vs veh, GNAQ / RFU, CDK5R1 / Fold change vs veh, CDK5R1 / RFU, ZRANB3 / Fold change vs veh, ZRANB3 / RFU, CUL4A / Fold change vs veh, CUL4A / RFU, CCNY / Fold change vs veh, CCNY / RFU, UFL1 / Fold change vs veh, UFL1 / RFU, COG3 / Fold change vs veh, COG3 / RFU, DIAPH2 / Fold change vs veh, DIAPH2 / RFU, SKA2 / Fold change vs veh, SKA2 / RFU, AFF3 / Fold change vs veh, AFF3 / RFU, LMF1 / Fold change vs veh, LMF1 / RFU, IPO11 / Fold change vs veh, IPO11 / RFU, DFFB / Fold change vs veh, DFFB / RFU, FOXP1 / Fold change vs veh, FOXP1 / RFU, CARD8 / Fold change vs veh, CARD8 / RFU, STRN3 / Fold change vs veh, STRN3 / RFU, ADK / Fold change vs veh, ADK / RFU, RASSF2 / Fold change vs veh, RASSF2 / RFU, WIPF1 / Fold change vs veh, WIPF1 / RFU, LARP1B / Fold change vs veh, LARP1B / RFU, RASA1 / Fold change vs veh, RASA1 / RFU, RB1 / Fold change vs veh, RB1 / RFU, PPFIA1 / Fold change vs veh, PPFIA1 / RFU, MAT2A / Fold change vs veh, MAT2A / RFU, CCT5 / Fold change vs veh, CCT5 / RFU, WDR92 / Fold change vs veh, WDR92 / RFU, CUX1 / Fold change vs veh, CUX1 / RFU, TTC7A / Fold change vs veh, TTC7A / RFU, TMEM135 / Fold change vs veh, TMEM135 / RFU, DEPTOR / Fold change vs veh, DEPTOR / RFU, CPM / Fold change vs veh, CPM / RFU, DNAJB6 / Fold change vs veh, DNAJB6 / RFU, CACNA2D3 / Fold change vs veh, CACNA2D3 / RFU, DTX4 / Fold change vs veh, DTX4 / RFU, TFCP2 / Fold change vs veh, TFCP2 / RFU, GMCL1 /// GMCL1P1 / Fold change vs veh, GMCL1 /// GMCL1P1 / RFU, AEBP2 / Fold change vs veh, AEBP2 / RFU, SNHG1 /// SNORD22 /// SNORD25 /// SNORD26 /// SNORD27 /// SNORD28 /// SNORD29 /// SNORD31 / Fold change vs veh, SNHG1 /// SNORD22 /// SNORD25 /// SNORD26 /// SNORD27 /// SNORD28 /// SNORD29 /// SNORD31 / Fold change (Aza/veh), C12orf56 (ProbeSet 11735607_a_at) / Fold change (ACY-1035/veh), C12orf56 (ProbeSet 11735607_a_at) / Fold change (Aza/veh), FGFR1OP (ProbeSet 11751329_s_at) / Fold change (ACY-1035/veh), FGFR1OP (ProbeSet 11751329_s_at) / Fold change (Aza/veh), VPS36 (ProbeSet 11739960_a_at) / Fold change (ACY-1035/veh), VPS36 (ProbeSet 11739960_a_at) / RFU SYPL1 (11715823_x_at) / Fold change /veh SYPL1 (11715823_x_at) / RFU IGFBP7 (11715501_s_at) / Fold change /veh IGFBP7 (11715501_s_at) / RFU REEP3 (11722064_at) / Fold change /veh REEP3 (11722064_at) / RFU IGLL1 (11728026_x_at) / Fold change /veh IGLL1 (11728026_x_at): dose or concentration left out as unconfirmed
Conditions: ProbeSet 11728676_at; LIST B

With Nc1ccc(-c2cccs2)cc1NC(=O)c1ccc2c(c1)cc(C1CC1)n2CCN1CCOCC1 [ACY-1035] the “RFU, MED14” value was 202.11 RFU.
